This is an account of results in ChEMBL document CHEMBL1132654 (J Med Chem, 1999).

The target of one assay is Integrin alpha-V/beta-3 (Homo sapiens, UniProt P05106+P06756). Description: Inhibition of Vitronectin receptor (alpha V beta 3) binding to vitronectin.
For assay [1], the target named is Integrin alpha-IIb/beta-3 (Homo sapiens, UniProt P05106+P08514). Put plainly: Inhibition of alpha IIb beta-3 integrin binding to fibrinogen. Type of assay: protein-complex assay.
Integrin alpha-IIb/beta-3, sequence (P05106 27-788 limits assumed): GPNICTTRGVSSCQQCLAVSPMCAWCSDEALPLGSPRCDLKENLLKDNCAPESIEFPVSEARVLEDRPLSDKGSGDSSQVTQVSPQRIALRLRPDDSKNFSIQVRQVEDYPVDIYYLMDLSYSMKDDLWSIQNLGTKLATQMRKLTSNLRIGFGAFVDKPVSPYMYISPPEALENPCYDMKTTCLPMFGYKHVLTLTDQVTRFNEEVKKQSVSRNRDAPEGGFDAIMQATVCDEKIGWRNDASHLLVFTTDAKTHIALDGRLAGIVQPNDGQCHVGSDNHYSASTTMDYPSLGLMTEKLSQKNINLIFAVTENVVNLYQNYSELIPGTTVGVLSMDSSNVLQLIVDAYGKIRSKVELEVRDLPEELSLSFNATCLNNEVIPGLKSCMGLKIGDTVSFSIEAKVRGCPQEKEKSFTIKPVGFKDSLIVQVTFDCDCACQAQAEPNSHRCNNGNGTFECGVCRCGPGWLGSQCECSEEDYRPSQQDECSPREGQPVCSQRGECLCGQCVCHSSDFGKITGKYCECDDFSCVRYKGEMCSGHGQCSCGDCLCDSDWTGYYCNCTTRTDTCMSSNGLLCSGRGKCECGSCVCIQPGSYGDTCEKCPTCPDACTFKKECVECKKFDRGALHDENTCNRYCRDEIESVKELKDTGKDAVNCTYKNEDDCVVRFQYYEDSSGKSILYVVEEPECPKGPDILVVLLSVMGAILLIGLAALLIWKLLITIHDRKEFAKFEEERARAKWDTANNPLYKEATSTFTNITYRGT
Integrin alpha-IIb/beta-3, sequence (P08514 32-887 limits assumed): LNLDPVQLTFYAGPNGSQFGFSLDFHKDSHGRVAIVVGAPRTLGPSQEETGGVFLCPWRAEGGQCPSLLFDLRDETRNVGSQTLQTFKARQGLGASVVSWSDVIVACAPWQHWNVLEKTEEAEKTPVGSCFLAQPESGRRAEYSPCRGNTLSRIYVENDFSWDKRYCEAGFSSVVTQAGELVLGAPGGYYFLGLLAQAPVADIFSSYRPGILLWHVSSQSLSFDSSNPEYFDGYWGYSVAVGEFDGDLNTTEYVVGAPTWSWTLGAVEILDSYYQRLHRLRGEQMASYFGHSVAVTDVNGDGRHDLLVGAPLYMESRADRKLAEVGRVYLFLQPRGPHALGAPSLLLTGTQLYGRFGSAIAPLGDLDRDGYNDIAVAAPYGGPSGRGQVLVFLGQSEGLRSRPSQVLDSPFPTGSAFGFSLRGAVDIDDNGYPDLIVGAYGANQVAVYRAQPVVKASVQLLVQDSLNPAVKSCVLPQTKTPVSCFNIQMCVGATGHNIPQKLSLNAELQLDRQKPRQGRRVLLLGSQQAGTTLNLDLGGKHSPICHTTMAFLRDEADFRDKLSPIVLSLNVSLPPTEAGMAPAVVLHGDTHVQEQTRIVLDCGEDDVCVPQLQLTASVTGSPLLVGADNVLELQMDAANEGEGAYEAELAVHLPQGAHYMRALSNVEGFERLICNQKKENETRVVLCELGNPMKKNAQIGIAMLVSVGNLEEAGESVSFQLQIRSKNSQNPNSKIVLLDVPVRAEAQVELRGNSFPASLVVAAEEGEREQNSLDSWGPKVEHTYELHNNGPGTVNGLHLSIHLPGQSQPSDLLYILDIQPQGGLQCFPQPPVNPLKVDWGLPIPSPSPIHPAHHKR
Integrin alpha-IIb/beta-3, sequence (P08514 891-1039 limits assumed): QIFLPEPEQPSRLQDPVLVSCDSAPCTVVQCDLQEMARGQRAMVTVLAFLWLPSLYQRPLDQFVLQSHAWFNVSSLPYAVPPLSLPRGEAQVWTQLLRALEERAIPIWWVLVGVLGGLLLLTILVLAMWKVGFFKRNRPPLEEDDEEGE

Integrin alpha-V/beta-3, sequence (P05106 27-788 limits assumed): as the sequence (P05106 27-788 limits assumed) above
Integrin alpha-V/beta-3, sequence (P06756 31-889 limits assumed): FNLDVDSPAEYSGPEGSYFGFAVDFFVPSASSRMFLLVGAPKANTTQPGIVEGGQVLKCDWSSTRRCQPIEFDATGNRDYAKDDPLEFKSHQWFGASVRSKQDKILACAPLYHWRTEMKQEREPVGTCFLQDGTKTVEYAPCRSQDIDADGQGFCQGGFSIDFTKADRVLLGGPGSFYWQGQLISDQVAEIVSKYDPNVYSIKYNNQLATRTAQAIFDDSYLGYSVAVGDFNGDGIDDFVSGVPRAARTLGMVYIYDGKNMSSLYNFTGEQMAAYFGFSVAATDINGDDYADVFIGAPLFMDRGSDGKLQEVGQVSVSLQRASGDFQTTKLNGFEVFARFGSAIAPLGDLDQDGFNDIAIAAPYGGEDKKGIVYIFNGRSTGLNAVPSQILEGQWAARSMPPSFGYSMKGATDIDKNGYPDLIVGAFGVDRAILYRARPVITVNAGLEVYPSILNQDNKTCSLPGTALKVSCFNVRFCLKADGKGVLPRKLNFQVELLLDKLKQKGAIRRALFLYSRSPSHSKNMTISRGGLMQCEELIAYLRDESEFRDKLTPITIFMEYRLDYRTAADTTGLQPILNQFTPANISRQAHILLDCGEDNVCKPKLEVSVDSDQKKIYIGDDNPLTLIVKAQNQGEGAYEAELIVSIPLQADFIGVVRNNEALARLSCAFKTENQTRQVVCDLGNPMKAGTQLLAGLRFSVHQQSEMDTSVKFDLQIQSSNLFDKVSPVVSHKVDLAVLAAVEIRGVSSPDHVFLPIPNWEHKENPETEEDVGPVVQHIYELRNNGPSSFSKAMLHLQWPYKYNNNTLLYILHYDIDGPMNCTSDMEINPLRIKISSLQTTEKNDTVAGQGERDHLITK
Integrin alpha-V/beta-3, sequence (P06756 891-1048 limits assumed): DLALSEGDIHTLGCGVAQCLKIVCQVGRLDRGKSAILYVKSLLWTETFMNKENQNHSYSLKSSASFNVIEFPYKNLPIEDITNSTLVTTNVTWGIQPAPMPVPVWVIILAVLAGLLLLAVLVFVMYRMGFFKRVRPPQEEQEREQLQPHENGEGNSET

For the molecule `NCCCC[C@H](NC(=O)[C@@H]1CCCN1C(=O)[C@H](CO)NC(=O)[C@H](CC(=O)O)NC(=O)CNC(=O)[C@H](CCCN=C(N)N)NC(=O)CN)C(=O)O`, the values for the IC50 (at Integrin alpha-V/beta-3; in assay [1]) were 210 nM and 1700 nM, respectively.
